Assays:
[1] = molecular target: J774-A1 prostaglandin cyclooxygenase; assay: Prostaglandin cyclooxygenase activity in J774-A1 macrophages; type: cell-based, mouse; details: 60 min; read-out: IC50 Cyclo-oxygenase J774-A1
Description: Few reports in the literature indicate interaction at these receptor sites other than by peptides or antibodies. […] Blocking these receptors is desirable because the entire inflammation cascade of events is triggered by the early release of TNFa and IL-1. […] Radioisotopes were obtained from New England Nuclear [Dupont, Boston, MA] and substrates and co- factors were obtained from Sigma Chemical Co. [St. Louis, MO]. […] Cell lines were obtained from American Type Culture Collection [Rockville, MD]. In Vivo Tests Anti-inflammatory screen in mice: Male CF male mice weighing 28-32g obtained from Jackson Lab. [Bar Harbor, […]] were used to screen agents at 8 or 16 mg/kg intraperitoneal [I.P.] x 2 administered 3 hr and 30 min prior to administering the irritant, according to Winter's protocol. Evaluation of the induced edema was made by injecting 2% carrageenan in 0.9% saline into the plantar region of the foot. The opposite foot injected with 0.9% isotonic saline was used as a base line. […] Salmonella abortus equi [Lot # 69F4003] […] Drugs from 2 to 16 mg/kg, I.P. were administered 2 hr prior and 2 hr post-injection of the LPS and then subsequently for every 24 hr for the length ofthe animals' lives. Deaths were recorded every 12 hr and continued for 96 hr. […] In vitro TNFa andIL-1 Measurements and Cellular Regulation IC-21 mouse macrophages were maintained in RPMI-1640 + 10% FCS + P/S. After the cells had grown to confluency, E. coli LPS at 10 Ixg/ml was added to the medium. Agents were incubated at 12.5 to 100 µM final concentration for 18 hr. The medium (100 btl) was collected for TNFCt determinations. Interleukin-1 [IL-1] release was determined using P388D1 cells which were maintained in RPMI-1640 + 10% FCS + P/S. The L929 bioassay was used to quantitate the TNF and the IL-1 levels. The L929 mouse fibroblasts were grown in DMEM + 10% FCS + P/S to confluency in 96 well plates and incubated with 100 tl ofmedium from […] or P388D cells after 18 hr. The cells were stained with 0.2% crystal violet in 20% MeOH and read at 580 nm using a Molecular Devices scanner (SOFT-max program). High Affinity Binding to Receptors on L929-106 Cells Two laCi of 125I-TNFct (human recombinant, 30 mCi/tg New England Nuclear) or 125I-IL-1 (70-120[.t Ci/lxg,New England Nuclear) was added to confluency L929 cells for 90 min or 5 hr, respectively with 25, 50 and 100 tM of the test compounds 12]. The cells were washed repeatedly with isotonic saline, pH.7.2 and aliquots counted. Prostaglandin cylcooxygenase activity Mouse J774AI macrophages maintained in Dulbecco's modified Eagle's medium + 15% FCS + P/S. Cells (5 x 106) were incubated with agents (5 to 100 ].tM final concentration) and 3H-arachidonic acid (100 Ci/mol) for 60 min at 37C in a CO2 incubator. The reaction was terminated with 2N HCI, the mixture extracted 2 X with ether, and the organic layer evaporated.

[2] = molecular target: IC-21 macrophage elastase; assay: Elastase activity in IC-21 macrophages; type: biochemical, mouse; details: 120 min
[3] = molecular target: human leukocyte elastase (RPMI 1788); assay: Elastase activity in human leukocytes RPMI 1788; type: biochemical

| Compound | IC50 [1] | IC50 [2] | IC50 ([3]; 60 min) | IC50 ([3]; 120 min) |
| --- | --- | --- | --- | --- |
| CC(=O)Oc1c2cc(S(=O)(=O)[O-])cc1Cc1cc(S(=O)(=O)[O-])cc(c1OC(C)=O)Cc1cc(S(=O)(=O)[O-])cc(c1OC(C)=O)Cc1cc(S(=O)(=O)[O-])cc(c1OC(C)=O)Cc1cc(S(=O)(=O)[O-])cc(c1OC(C)=O)Cc1cc(S(=O)(=O)[O-])cc(c1OC(C)=O)Cc1cc(S(=O)(=O)[O-])cc(c1OC(C)=O)Cc1cc(S(=O)(=O)[O-])cc(c1OC(C)=O)C2.[Na+].[Na+].[Na+].[Na+].[Na+].[Na+].[Na+].[Na+] [Compound 8] | 33.3 µM | 111 µM | – | – |
| COc1c2cc(S(=O)(=O)[O-])cc1Cc1cc(S(=O)(=O)[O-])cc(c1OC)Cc1cc(S(=O)(=O)[O-])cc(c1OC)Cc1cc(S(=O)(=O)[O-])cc(c1OC)Cc1cc(S(=O)(=O)[O-])cc(c1OC)Cc1cc(S(=O)(=O)[O-])cc(c1OC)C2.[Na+].[Na+].[Na+].[Na+].[Na+].[Na+] [Compound 6] | – | – | 275 µM | 162 µM |

Reference: publication PMC2365101, “Anti-Inflammatory Activity of (Polyphenolic)-Sulfonates and Their Sodium Salts in Rodents” (Metal-Based Drugs, 1998)
